These results are taken from US12679878B2, “CRF2 receptor agonists and their use in therapy” (SANOFI, priority 2020, dated 2026).

Where two headings read alike, the source gives them in different places. Starred links: 1 amine or outer side, 2 acyl side, 3 side chain; linkers in the order of their positions; H or OH if unused. Non-standard residues stand in square brackets, D forms with d. Residues, ends and D or L forms follow the SMILES beside them. Groups on a side chain read outwards from the residue. *: point of attachment. C20 diacid = O=C(O)CCCCCCCCCCCCCCCCCCC(=O)*; C18 diacid = O=C(O)CCCCCCCCCCCCCCCCC(=O)*; γGlu = O=C(O)[C@H](CCC(=O)[*:2])N[*:1]; Palmitoyl = CCCCCCCCCCCCCCCC(=O)*; AEEA = NCCOCCOCC(=O)O; Aib = CC(C)(N)C(=O)O

One may read the solubility as how much of the substance goes into solution per volume. High values mean a readily soluble substance, low ones a poorly soluble substance. As a reminder, the EC50 is the midpoint of the concentration-response curve. Broadly, the Emax is the size of the effect at its maximum, as opposed to the concentration needed.

Data set [1] in a line: Solubility in buffer systems by UPLC-UV (Example 13). The format is physicochemical. The essentials:
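Quantitation used UV peak area from UPLC of the 1:10-diluted supernatant, set against a reference-compound standard curve with extinction coefficients adjusted for amino acid sequence.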

The next data set concerns the target T1, human CRF2α receptor (Homo sapiens, UniProt Q13324).
T1 construct: expressed in transfected cells; host or cells: TeloHEAC
T1 sequence (Q13324 1-411): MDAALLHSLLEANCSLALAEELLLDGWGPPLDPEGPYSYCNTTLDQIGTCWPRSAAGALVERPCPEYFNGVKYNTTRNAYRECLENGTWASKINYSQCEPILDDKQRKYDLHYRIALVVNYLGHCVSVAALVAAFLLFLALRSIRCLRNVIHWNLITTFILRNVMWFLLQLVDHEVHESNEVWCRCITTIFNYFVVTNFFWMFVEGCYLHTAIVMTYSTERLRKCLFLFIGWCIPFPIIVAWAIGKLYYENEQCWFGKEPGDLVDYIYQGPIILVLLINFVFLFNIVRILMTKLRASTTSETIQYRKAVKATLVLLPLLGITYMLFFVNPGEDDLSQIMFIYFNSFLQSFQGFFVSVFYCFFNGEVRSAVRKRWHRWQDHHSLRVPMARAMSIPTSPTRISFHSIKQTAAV
As to the kind of experiment: cAMP agonism at human CRF2 α receptor in TeloHEAC cells (Example 7). The class given is cell-based. The settings on record: cAMP HTRF, TeloHEAC cells stably expressing human CRF2 α. The essentials: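 Cryopreserved cells are thawed, washed and resuspended in IBMX-containing (2 mM) HEPES-buffered HBSS with or without 0.1% HSA. Compound incubation runs 30 min at room temperature with 2000 cells per well, then cAMP is measured by time-resolved FRET. Potency is expressed as EC50, efficacy relative to urocortin 2 at 1000 nM.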
Background: Time-resolved FRET reads energy transfer from a long-lived donor to a nearby acceptor.

Data set [2] is described as follows: Physical stability, Thioflavin T fibrillation assay (Example 14). The format is physicochemical. The settings on record: 3 mg/ml, 37° C. shaking. As for the experimental part:
The physical stability of the compounds was assessed using a Thioflavin T (ThT) assay.
The time course for fibril formation often follows the characteristic shape of a sigmoidal curve and can be separated into three regions: a lag phase, a fast growth phase, and a plateau phase. The typical fibril formation process starts with the lag phase in which the amount of partially folded peptide turned into fibrils is not significant enough to be detected. The lag-time corresponds to the time the critical mass of the nucleus is built. Afterwards, a drastic elongation phase follows and fibril concentration increases rapidly. Therefore, by measuring the increase in fluorescence intensity attributable to ThT as well as the lag time of the increase, the fibrillation tendency of a peptide can be determined, thereby providing a measure of the physical stability of the peptide.
In the present study, test compounds were diluted in buffer to a final concentration of 3 mg/ml.
The fibrillation tendencies of the peptides were determined under stress using a Fluoroskan Ascent FL or Fluoroskan Ascent fluorometer. […] Plates were sealed with Scotch Tape (Quiagen). Samples were stressed by continuous cycles of 10 s shaking at 960 rpm and 50 s rest period at 37° C. Fibril development was monitored by measuring fluorescence intensity every 20 minutes. For each sample, eight replicates were tested.

In another data set the target is T2, CRF1R receptor (Homo sapiens, UniProt P34998).
T2 construct: host or cells: CHO-K1 clone 2
T2 sequence (P34998 24-415): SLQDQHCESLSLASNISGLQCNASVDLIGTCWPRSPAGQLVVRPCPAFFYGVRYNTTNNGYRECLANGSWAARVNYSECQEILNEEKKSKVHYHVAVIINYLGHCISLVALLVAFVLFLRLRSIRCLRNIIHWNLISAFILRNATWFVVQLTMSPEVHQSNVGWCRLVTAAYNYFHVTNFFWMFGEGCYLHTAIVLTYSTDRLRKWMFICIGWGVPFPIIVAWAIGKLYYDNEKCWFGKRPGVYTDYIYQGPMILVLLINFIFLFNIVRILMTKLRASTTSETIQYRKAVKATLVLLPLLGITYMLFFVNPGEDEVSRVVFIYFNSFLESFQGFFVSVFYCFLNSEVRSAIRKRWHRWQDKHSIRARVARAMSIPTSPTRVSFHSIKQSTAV
Briefly: cAMP activity at anti-target CRF1R, CRF1R-overexpression CHO cell line (Example 9). The class given is cell-based. The conditions noted are these: CRF1R-overexpression CHO cell line; for Emax: read-out: Emax (%); for EC50: 0% HSA. The essentials:
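Using thawed CRF1R-overexpressing CHO cells at 2000 per well, compound is applied for 30 min at RT in HBSS/HEPES buffer with IBMX. Cellular cAMP content is determined via HTRF, and percent activity is calculated against 1000 nM UCN2 defined as 100%.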

The subject of another data set is rat CRF2R α receptor. As to the kind of experiment: cAMP agonism at rat CRF2R α receptor in A7R5 rat aortic smooth muscle cells (Example 8). The conditions noted are these: cAMP HTRF, A7R5 rat aortic smooth muscle cell line, 0% HSA. The format is cell-based. The essentials: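 Potency (EC50) is the concentration reaching half-maximal activation, with responses scaled so that 1000 nM urocortin 2 equals 100%. Intracellular cAMP was quantified by homogeneous time-resolved fluorescence at 665/620 nm, 1 h after lysis-buffer reagents. Compound stimulation lasted 30 min at room temperature on 2000 IBMX-treated (2 mM) cells per well in HEPES-buffered HBSS.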

[3] abbreviates: pH 4.5, Solubility in Buffer B [mg/ml].
Setting [4] is: 0% HSA, read-out: EC50 [nM], 0% HSA.
Setting [5] is: Buffer B: 100 mM acetate buffer, pH 4.5, 2.7 mg/ml m-cresol.
Where [6] appears, read: Buffer A: 100 mM acetate buffer, pH 4.5.

On to `CCCCCCCCCCCCCCCC(=O)N[C@@H](CCC(=O)NCCCC[C@H](NC(=O)[C@H](CC(C)C)NC(=O)[C@H](CCCCN)NC(=O)[C@@H](NC(=O)[C@@H]1CCCN1C(=O)[C@H](NC(=O)[C@H](CC(=O)O)NC(=O)[C@H](CC(C)C)NC(=O)[C@H](CO)NC(=O)[C@H](CC(C)C)NC(=O)[C@@H](NC(=O)[C@@H](N)[C@@H](C)CC)C(C)C)C(C)C)[C@@H](C)O)C(=O)N[C@@H](CCC(N)=O)C(=O)N[C@@H](CCCCN)C(=O)N[C@@H](CC(C)C)C(=O)N[C@@H](CC(C)C)C(=O)N[C@@H](CCCCN)C(=O)N[C@@H](CCC(N)=O)C(=O)N[C@@H](CCC(=O)O)C(=O)N[C@@H](CCCNC(=N)N)C(=O)N[C@@H](CCC(N)=O)C(=O)N[C@@H](CCCNC(=N)N)C(=O)N[C@@H](CCCCN)C(=O)N[C@@H](CCC(=O)O)C(=O)N[C@@H](CCCNC(=N)N)C(=O)N[C@@H](CCC(=O)O)C(=O)N[C@@H](CCC(N)=O)C(=O)N[C@@H](C)C(=O)N[C@@H](CCC(=O)O)C(=O)N[C@@H](CCCCN)C(=O)N[C@@H](CC(N)=O)C(=O)N[C@@H](C)C(=O)N[C@@H](CCCNC(=N)N)C(=O)N[C@H](C(=O)N[C@@H](CC(C)C)C(=O)N[C@@H](C)C(=O)N[C@@H](CCCNC(=N)N)C(=O)N[C@H](C(N)=O)C(C)C)[C@@H](C)CC)C(=O)O` [compound 7] (H-IVLSLD[dV]PTKLK([γGlu-Palmitoyl])QKLLKQERQRKEREQAEKNARILARV-NH2), for which the solubility at 1 h in data set [1] (setting [3]) is greater than 8.9 mg/mL. Moreover, the EC50 at human CRF2α receptor (setting [4]) was found to be 0.02 nM; on human CRF2α receptor (0.1% HSA, read-out: EC50 [nM], 0.1% HSA), 0.03 nM. For the same compound, the “Increase in FI (fluorescence intensity)” value in data set [2] (setting [5]) is listed as “No”. Further, the “Lag time” value in data set [2] (setting [5]) is greater than 45 h. For the same compound, the Emax at CRF1R receptor was found to be 58.6%.
On to `CC[C@H](C)[C@H](NC(=O)[C@H](CCC(N)=O)NC(=O)[C@H](CCCCNC(=O)COCCOCCNC(=O)COCCOCCNC(=O)CC[C@H](NC(=O)CCCCCCCCCCCCCCCCCCC(=O)O)C(=O)O)NC(=O)[C@@H](NC(=O)[C@H](CCCCN)NC(=O)[C@@H](NC(=O)[C@@H]1CCCN1C(=O)[C@@H](NC(=O)[C@H](CC(=O)O)NC(=O)[C@H](CC(C)C)NC(=O)[C@H](CO)NC(=O)[C@H](CC(C)C)NC(=O)[C@@H](NC(=O)[C@@H](N)Cc1ccccc1)[C@@H](C)O)C(C)C)[C@@H](C)O)[C@@H](C)CC)C(=O)N[C@@H](CC(C)C)C(=O)N[C@@H](CC(C)C)C(=O)N[C@@H](CCCCN)C(=O)N[C@@H](CCC(N)=O)C(=O)N[C@@H](CCC(N)=O)C(=O)N[C@@H](CCCCN)C(=O)N[C@@H](CCC(N)=O)C(=O)N[C@@H](CCCCN)C(=O)N[C@@H](CCCCN)C(=O)N[C@@H](CCC(=O)O)C(=O)N[C@@H](CCCNC(=N)N)C(=O)N[C@@H](CCC(N)=O)C(=O)N[C@@H](CCC(N)=O)C(=O)N[C@@H](C)C(=O)N[C@@H](CCC(=O)O)C(=O)N[C@@H](CCCCN)C(=O)N[C@@H](CC(N)=O)C(=O)N[C@@H](CCCCN)C(=O)N[C@@H](CCC(N)=O)C(=O)N[C@@H](CC(C)C)C(=O)N[C@@H](CC(C)C)C(=O)N[C@@H](CCC(=O)O)C(=O)N[C@@H](CCCNC(=N)N)C(=O)N[C@H](C(N)=O)C(C)C` [compound 60] (H-FTLSLDVPTKIK([AEEA-AEEA-γGlu-C20 diacid])QILLKQQKQKKERQQAEKNKQLLERV-NH2), for which the solubility at 1 h in data set [1] (setting [3]) was greater than 11.5 mg/mL; in data set [1] (pH 7.4, Solubility in Buffer C [mg/ml]), greater than 11 mg/mL. For the same compound, the EC50 at human CRF2α receptor (setting [4]) was 0.48 nM; in the data set with rat CRF2R α receptor, 1.35 nM; on CRF1R receptor, greater than 1000 nM. Further, the “Increase in FI (fluorescence intensity)” value in data set [2] (setting [6]) and in data set [2] (setting [5]) was “No” throughout. Further, the “Lag time” value in data set [2] (setting [6]) and in data set [2] (setting [5]) was greater than 45 h each time. Moreover, the Emax at CRF1R receptor is 4.84%.
`CC[C@H](C)[C@H](N)C(=O)N[C@H](C(=O)N[C@@H](CC(C)C)C(=O)N[C@@H](CO)C(=O)N[C@@H](CC(C)C)C(=O)N[C@@H](CC(=O)O)C(=O)N[C@H](C(=O)N1CCC[C@H]1C(=O)N[C@H](C(=O)N[C@@H](CCCCN)C(=O)N[C@@H](CC(C)C)C(=O)N[C@@H](CCCCNC(=O)COCCOCCNC(=O)COCCOCCNC(=O)CC[C@H](NC(=O)CCCCCCCCCCCCCCCCC(=O)O)C(=O)O)C(=O)N[C@@H](CCC(N)=O)C(=O)N[C@H](C(=O)N[C@@H](CC(C)C)C(=O)N[C@@H](CC(C)C)C(=O)N[C@@H](CCC(=O)O)C(=O)N[C@@H](CCC(N)=O)C(=O)N[C@@H](CCC(=O)O)C(=O)N[C@@H](CCCNC(=N)N)C(=O)N[C@@H](CCC(N)=O)C(=O)N[C@@H](CCCCN)C(=O)N[C@@H](CCCCN)C(=O)N[C@@H](CCC(N)=O)C(=O)N[C@@H](CCCNC(=N)N)C(=O)N[C@@H](CCC(N)=O)C(=O)N[C@@H](CCC(N)=O)C(=O)N[C@@H](C)C(=O)N[C@@H](CCC(=O)O)C(=O)N[C@H](C(=O)N[C@@H](CC(N)=O)C(=O)NC(C)(C)C(=O)N[C@@H](CCC(N)=O)C(=O)N[C@H](C(=O)N[C@@H](CC(C)C)C(=O)N[C@@H](C)C(=O)N[C@@H](CCC(N)=O)C(=O)N[C@H](C(N)=O)C(C)C)[C@@H](C)CC)[C@@H](C)O)[C@@H](C)CC)[C@@H](C)CC)C(C)C)C(C)C` [compound 72] (H-IVLSLDVPIKLK([AEEA-AEEA-γGlu-C18 diacid])QILLEQERQKKQRQQAETN[Aib]QILAQV-NH2; N-terminus assumed) came in with a solubility at 1 h in data set [1] (setting [3]) greater than 10.7 mg/mL. Besides, the EC50 was 0.65 nM on human CRF2α receptor (setting [4]), 4.31 nM with rat CRF2R α receptor and greater than 1000 nM on CRF1R receptor. For the same compound, the “Increase in FI (fluorescence intensity)” value in data set [2] (setting [5]) was “Yes”. The “Lag time” value in data set [2] (setting [5]) was in the range of 34.7 to 41.0 h. Further, the Emax at CRF1R receptor was found to be 2.58%.
